Our source for the EC50 values is US20250154173A1 (Merck Sharp & Dohme LLC, priority 2023, published 2025).

The target in this assay is T1, GST-RIPK1 (recombinant GST-RIPK1 kinase domain (residues 1-327)) (Homo sapiens, UniProt Q13546).
T1 construct: recombinant GST-RIPK1 kinase domain (residues 1-327) enzyme produced from baculovirus-transfected Sf21 cells; host or cells: baculovirus-transfected Sf21 insect cells
T1 sequence (Q13546 1-327): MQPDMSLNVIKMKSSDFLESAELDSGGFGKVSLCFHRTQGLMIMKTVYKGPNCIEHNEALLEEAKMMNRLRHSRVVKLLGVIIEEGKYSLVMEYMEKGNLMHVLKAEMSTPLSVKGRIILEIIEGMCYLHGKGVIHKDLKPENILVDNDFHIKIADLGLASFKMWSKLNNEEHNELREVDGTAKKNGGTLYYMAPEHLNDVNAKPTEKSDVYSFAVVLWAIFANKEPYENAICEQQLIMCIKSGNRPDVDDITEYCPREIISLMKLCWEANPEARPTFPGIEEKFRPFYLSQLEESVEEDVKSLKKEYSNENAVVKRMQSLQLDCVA
Put plainly: RIPK1-ADP-Glo Enzymatic Assay. The class given is biochemical. Conditions: ten-point titration, top compound concentration of 100000 nM; 25 nM GST-RIPK1, 300 μM ATP, 3 μM dephosphorylated-MBP; 30 min pre-incubation, 150 min reaction. A digest of the protocol: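 ADP-Glo luminescence quantifies ADP formed over 150 minutes by 25 nM Sf21-produced GST-RIPK1 (1-327) using 300 μM ATP and 3 μM dephosphorylated MBP, following 30-minute compound preincubation at 1% DMSO. Ten-point 1:3 series from 100000 nM gave EC50 via four-parameter sigmoidal regression.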

As to `O=C1N2[C@@H](CC[C@H]2c2cnccn2)O[C@]12C[C@@H](OCc1cccnc1)C2` [Example 18.1, (1S,3S,5′S,7a′R)-5′-(pyrazin-2-yl)-3-(pyridin-3-ylmethoxy)tetrahydro-3′H-spiro[cyclobutane-1,2′-pyrrolo[2,1-b]oxazol]-3′-one], the EC50 was determined as 0.1 µM.

For `O=C1N2C(CC[C@H]2c2cnccn2)OC12CC(OCc1cnc3nncn3c1)C2` (stereo partly drawn) [Example 18.2, (5′S)-5′-(pyrazin-2-yl)-3-[([1,2,4]triazolo[4,3-a]pyrimidin-6-yl)methoxy]tetrahydro-3′H-spiro[cyclobutane-1,2′-pyrrolo[2,1-b][1,3]oxazol]-3′-one], the EC50 came to 0.066 µM.

Consider `O=C1N2C(CC[C@H]2c2cnccn2)OC12CC(OCc1cnn(C3CC3)c1)C2` (stereo partly drawn) [Example 18.3, (5′S)-3-[(1-cyclopropyl-1H-pyrazol-4-yl)methoxy]-5′-(pyrazin-2-yl)tetrahydro-3′H-spiro[cyclobutane-1,2′-pyrrolo [2,1-b][1,3]oxazol]-3′-one], for which the EC50 amounted to 0.969 µM.

`O=C1N2C(CC[C@H]2c2cnccn2)OC12CC(OCc1cnn3cccnc13)C2` (stereo partly drawn) [Example 18.4, (5′S)-5′-(pyrazin-2-yl)-3-[(pyrazolo[1,5-a]pyrimidin-3-yl)methoxy]tetrahydro-3′H-spiro[cyclobutane-1,2′-pyrrolo[2,1-b][1,3]oxazol]-3′-one]: the EC50 came to 0.045 µM.

As to `Cn1cc(COC2CC3(C2)OC2CC[C@@H](c4cnccn4)N2C3=O)cn1` (stereo partly drawn) [Example 18.5, (5′S)-3-[(1-methyl-1H-pyrazol-4-yl)methoxy]-5′-(pyrazin-2-yl)tetrahydro-3′H-spiro[cyclobutane-1,2′-pyrrolo[2,1-b][1,3]oxazol]-3′-one], the EC50 amounted to 0.307 µM.

For `O=C1N2[C@@H](CC[C@H]2c2cnccn2)OC12CC(OCc1cnn(C34CC(C3)C4)c1)C2` (stereo partly drawn) [Example 18.6, (5′S, 7a′R)-3-{[1-(bicyclo[1.1.1]pentan-1-yl)-1H-pyrazol-4-yl]methoxy}-5′-(pyrazin-2-yl)tetrahydro-3′H-spiro[cyclobutane-1,2′-pyrrolo[2,1-b][1,3]oxazol]-3′-one], the EC50 worked out at 0.365 µM.

On to `O=C1N2C(CC[C@H]2c2cnccn2)OC12CC(OCc1cnn(-c3ccccc3)c1)C2` (stereo partly drawn) [Example 18.7, (5′S)-3-[(1-phenyl-1H-pyrazol-4-yl)methoxy]-5′-(pyrazin-2-yl)tetrahydro-3′H-spiro[cyclobutane-1,2′-pyrrolo [2,1-b][1,3]oxazol]-3′-one], for which the EC50 worked out at 0.052 µM.

`CCOc1ncc(COC2CC3(C2)OC2CC[C@@H](c4cnccn4)N2C3=O)cn1` (stereo partly drawn) [Example 18.8, (5′S)-3-[(2-ethoxypyrimidin-5-yl)methoxy]-5′-(pyrazin-2-yl)tetrahydro-3′H-spiro[cyclobutane-1,2′-pyrrolo[2,1-b][1,3]oxazol]-3′-one]: the 50% effective concentration (EC50) is 0.466 µM.

Turning to `O=C1N2C(CC[C@H]2c2cnccn2)OC12CC(OCc1cccc(CCn3cnnc3)c1)C2` (stereo partly drawn) [Example 18.9, (5′S)-5′-(pyrazin-2-yl)-3-({3-[2-(4H-1,2,4-triazol-4-yl)ethyl]phenyl}methoxy)tetrahydro-3′H-spiro[cyclobutane-1,2′-pyrrolo[2,1-b][1,3]oxazol]-3′-one], the EC50 was found to be 0.1 µM.

Regarding `N#CCc1cccc(COC2CC3(C2)OC2CC[C@@H](c4cnccn4)N2C3=O)c1` (stereo partly drawn) [Example 18.10, [3-({[(5′S)-3′-oxo-5′-(pyrazin-2-yl)tetrahydro-3′H-spiro[cyclobutane-1,2′-pyrrolo[2,1-b][1,3]oxazol]-3-yl]oxy}methyl)phenyl]acetonitrile], the EC50 is 0.012 µM.

On to `O=C1N2C(CC[C@H]2c2cnccn2)OC12CC(OCc1ccc(C(F)F)cn1)C2` (stereo partly drawn) [Example 18.11, (5′S)-3-{[5-(difluoromethyl)pyridin-2-yl]methoxy}-5′-(pyrazin-2-yl)tetrahydro-3′H-spiro[cyclobutane-1,2′-pyrrolo[2,1-b][1,3]oxazol]-3′-one], for which the EC50 is 0.089 µM.

Regarding `O=C1N2C(CC[C@H]2c2cnccn2)OC12CC(OCc1nnc(Cc3ccccc3)s1)C2` (stereo partly drawn) [Example 18.12, (5′S)-3-[(5-benzyl-1,3,4-thiadiazol-2-yl)methoxy]-5′-(pyrazin-2-yl)tetrahydro-3′H-spiro[cyclobutane-1,2′-pyrrolo[2,1-b][1,3]oxazol]-3′-one], the EC50 amounted to 0.181 µM.

For the molecule `CCC(C)Oc1cccc(COC2CC3(C2)OC2CC[C@@H](c4cnccn4)N2C3=O)n1` (stereo partly drawn) [Example 18.13, (5′S)-3-({6-[(butan-2-yl)oxy]pyridin-2-yl}methoxy)-5′-(pyrazin-2-yl)tetrahydro-3′H-spiro[cyclobutane-1,2′-pyrrolo[2,1-b][1,3]oxazol]-3′-one], the EC50 turned out to be 0.046 µM.

For `N#Cc1ccc(COC2CC3(C2)OC2CC[C@@H](c4cnccn4)N2C3=O)c2cccnc12` (stereo partly drawn) [Example 18.14, 5-({[(5′S)-3′-oxo-5′-(pyrazin-2-yl)tetrahydro-3′H-spiro[cyclobutane-1,2′-pyrrolo[2,1-b][1,3]oxazol]-3-yl]oxy}methyl)quinoline-8-carbonitrile], the EC50 worked out at 0.016 µM.

As to `Cc1cnn(-c2cnc(COC3CC4(C3)OC3CC[C@@H](c5cnccn5)N3C4=O)cn2)c1` (stereo partly drawn) [Example 18.15, (5′S)-3-{[5-(4-methyl-1H-pyrazol-1-yl)pyrazin-2-yl]methoxy}-5′-(pyrazin-2-yl)tetrahydro-3′H-spiro[cyclobutane-1,2′-pyrrolo[2,1-b][1,3]oxazol]-3′-one], the EC50 is 0.076 µM.

In the case of `CSc1nnc2ccc(COC3CC4(C3)OC3CC[C@@H](c5cnccn5)N3C4=O)cn12` (stereo partly drawn) [Example 18.16, (5′S)-3-{[3-(methylsulfanyl)[1,2,4]triazolo[4,3-a]pyridin-6-yl]methoxy}-5′-(pyrazin-2-yl)tetrahydro-3′H-spiro[cyclobutane-1,2′-pyrrolo[2,1-b][1,3]oxazol]-3′-one], the EC50 stood at 0.349 µM.

For the molecule `CS(=O)(=O)c1ccc(COC2CC3(C2)OC2CC[C@@H](c4cnccn4)N2C3=O)cc1` (stereo partly drawn) [Example 18.17, (5′S)-3-{[4-(methylsulfonyl)phenyl]methoxy}-5′-(pyrazin-2-yl)tetrahydro-3′H-spiro[cyclobutane-1,2′-pyrrolo[2,1-b][1,3]oxazol]-3′-one], the EC50 was 0.145 µM.

For the molecule `O=C1N2C(CC[C@H]2c2cnccn2)OC12CC(OCc1csc3ncccc13)C2` (stereo partly drawn) [Example 18.18, (5′S)-5′-(pyrazin-2-yl)-3-[(thieno[2,3-b]pyridin-3-yl)methoxy]tetrahydro-3′H-spiro[cyclobutane-1,2′-pyrrolo[2,1-b][1,3]oxazol]-3′-one], the EC50 was 0.018 µM.

`O=C1N2C(CC[C@H]2c2cnccn2)OC12CC(OCc1ccc3nccn3c1)C2` (stereo partly drawn) [Example 18.19, (5′S)-3-[(imidazo[1,2-a]pyridin-6-yl)methoxy]-5′-(pyrazin-2-yl)tetrahydro-3′H-spiro[cyclobutane-1,2′-pyrrolo[2,1-b][1,3]oxazol]-3′-one]: the EC50 worked out at 0.11 µM.

As for `O=C1N2C(CC[C@H]2c2cnccn2)OC12CC(OCc1cc3cncnc3s1)C2` (stereo partly drawn) [Example 18.20, (5′S)-5′-(pyrazin-2-yl)-3-[(thieno[2,3-d]pyrimidin-6-yl)methoxy]tetrahydro-3′H-spiro[cyclobutane-1,2′-pyrrolo[2,1-b][1,3]oxazol]-3′-one], the EC50 came out at 0.022 µM.
